The record followed here is ChEMBL document CHEMBL1123653 (J Med Chem, 1987).

The target in assay [1] is T1, Serotonin 1 (5-HT1) receptor (Rattus norvegicus, UniProt P28564+P30940+P19327+P28565).
Assay [2] has as its target T2, Serotonin 2 (5-HT2) receptor (Rattus norvegicus, UniProt P30994+P08909+P14842).
Assay [3] has as its target T3, 5-hydroxytryptamine receptor 1A (Rattus norvegicus, UniProt P19327).
T3 sequence (P19327 whole entry): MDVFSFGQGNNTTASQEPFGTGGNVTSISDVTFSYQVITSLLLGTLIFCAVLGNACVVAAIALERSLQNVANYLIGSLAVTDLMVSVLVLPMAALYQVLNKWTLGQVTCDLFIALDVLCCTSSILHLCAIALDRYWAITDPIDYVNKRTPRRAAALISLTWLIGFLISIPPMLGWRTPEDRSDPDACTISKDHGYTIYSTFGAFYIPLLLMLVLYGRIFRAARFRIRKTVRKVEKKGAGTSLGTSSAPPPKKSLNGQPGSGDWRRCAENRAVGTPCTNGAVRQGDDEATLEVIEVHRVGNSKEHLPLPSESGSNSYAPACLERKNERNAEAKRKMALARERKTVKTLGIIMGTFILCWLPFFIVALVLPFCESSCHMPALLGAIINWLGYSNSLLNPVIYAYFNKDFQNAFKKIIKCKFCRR

The target of assay [4] is T4, 5-hydroxytryptamine receptor 1B (Rattus norvegicus, UniProt P28564).
For assay [5], the target named is T1, Serotonin 1 (5-HT1) receptor. Kind of assay: Binding affinity towards 5-hydroxytryptamine 1 receptor was determined. It is filed as protein assay.
Assay [6] deals with T2, Serotonin 2 (5-HT2) receptor. Briefly: Binding affinity to rat cortical membranes at 5-hydroxytryptamine 2 receptor binding site by using [3H]- DOB as a radioligand.
For assay [7] the target is unchanged. Briefly: Binding affinity to rat cortical membranes at 5-hydroxytryptamine 2 receptor binding site by using [3H]- DOB as a radioligand.
Assay [8] has the same target. This is another data set of the same source.
Assay [9] has as its target T4, 5-hydroxytryptamine receptor 1B. The source holds these as a separate data set.
Description: Binding affinity towards 5-HT1B was determined
Assay [10] has as its target T2, Serotonin 2 (5-HT2) receptor. This is another data set of the same source.
For assay [11] the target is unchanged. This is another data set of the same source.

T4 sequence (P28564 whole entry): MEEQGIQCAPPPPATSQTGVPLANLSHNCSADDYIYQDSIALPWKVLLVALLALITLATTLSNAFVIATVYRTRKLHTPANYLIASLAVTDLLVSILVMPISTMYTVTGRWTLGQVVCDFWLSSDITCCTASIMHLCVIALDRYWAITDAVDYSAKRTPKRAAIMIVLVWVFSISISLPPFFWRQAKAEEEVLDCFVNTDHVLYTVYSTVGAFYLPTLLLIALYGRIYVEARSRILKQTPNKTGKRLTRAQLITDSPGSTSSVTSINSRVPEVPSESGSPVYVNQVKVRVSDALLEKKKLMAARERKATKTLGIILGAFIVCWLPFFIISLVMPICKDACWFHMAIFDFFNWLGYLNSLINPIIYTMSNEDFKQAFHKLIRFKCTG

As a reminder, the Ki is a dissociation constant, usually derived from enzyme kinetics or from competition with a known ligand. Low values mean tighter binding, high ones weaker binding. `COc1cc(C[C@H](C)N)c(OC)cc1I`: the Ki amounted to 920 nM in assay [1] and 35 nM in assay [2].

With `CN[C@H](C)Cc1cc(OC)c(C)cc1OC`, the inhibition constant Ki in assay [1] was found to be 4300 nM; in assay [2], 260 nM.

In the case of `COc1cc([N+](=O)[O-])c(OC)cc1C[C@@H](C)N`, the values for the Ki in [1] and in assay [2] were 13200 nM and 210 nM, respectively.

Consider `NCCc1c[nH]c2ccc(C(N)=O)cc12`, for which the Ki worked out at 0.2 nM in assay [3] and 5 nM in [4].

Take `NCCc1c[nH]c2cccc(O)c12`: the values for the Ki in assay [3], in assay [4] and in [2] were 95 nM, 1050 nM and 725 nM, respectively.

With `CNC(C)Cc1cc(OC)c(C)cc1OC` (configuration not stated), the Ki in assay [1] is given as 3870 nM; in assay [2], 415 nM.

Regarding `NCCc1c[nH]c2cc(O)ccc12`, the results for the Ki in assay [3], in assay [4] and in assay [2] were 1590 nM, 5890 nM and 11500 nM, respectively.

In [1], `C[C@@H](N)Cc1ccc2c(c1)OCO2` registered a Ki of 13000 nM.

As to `COc1cc(CC(C)N)c(OC)cc1F` (configuration not stated), the Ki is reported as 3370 nM in assay [1] and 1110 nM in assay [2].

Consider `FC(F)(F)c1cccc(N2CCNCC2)c1`, for which the Ki came to 1950 nM in [3], 30 nM in assay [4] and 20 nM in assay [1].

The compound `c1ccc2c(N3CCNCC3)cccc2c1` returned a Ki in [5] of 5 nM.

As for `CNCCc1c[nH]c2ccc(O)cc12`, the Ki in assay [3] is 5 nM; in assay [4], 45 nM; in assay [2] it was 180 nM.

Turning to `COc1ccc(CC(C)N)cc1OC` (configuration not stated), the values for the Ki in assay [1] and in [2] were 64600 nM and 43300 nM, respectively.

In turn, `c1ccc2cc(N3CCNCC3)ccc2c1` gave a Ki in assay [5] of 265 nM.

`COc1cc(C[C@@H](C)N)c(OC)cc1C` showed a Ki in assay [1] of 3550 nM.

In the case of `COc1cc(C[C@H](C)N)c(OC)cc1Br`, the Ki in assay [1] came out at 5000 nM.

Regarding `CCc1cc(OC)c(CC(C)N)cc1OC` (configuration not stated), the Ki in assay [1] is reported as 4570 nM.

`COc1cc([N+](=O)[O-])c(OC)cc1CC(C)N` (configuration not stated): the Ki in assay [1] is reported as 14100 nM; in assay [2], 300 nM.

In assay [1], `COc1cc(OC)c(OC)cc1CC(C)N` (configuration not stated) gave a Ki of 46400 nM.

As to `CCCc1cc(OC)c(CC(C)N)cc1OC` (configuration not stated), the Ki came to 3170 nM in assay [1] and 69 nM in assay [2].

With `CC(C)NCC(O)COc1cccc2[nH]ccc12` (single isomer, unassigned; (-)) [PINDOLOL], affinity in [3] was put at a Ki of 20 nM.

In turn, `COc1cc(C[C@@H](C)N)c(OC)cc1Br` (stereo in doubt; form 1) returned a Ki in [1] of 4200 nM.

Take `COc1cc(C[C@@H](C)N)c(OC)cc1Br` (stereo in doubt; form 2): the Ki in assay [1] came out at 4200 nM.

On to `CCCN(CCC)C1CCc2cccc(O)c2C1` (configuration not stated) [8-OH-DPAT], for which the values for the Ki in [6] and in assay [2] were 700 nM and 5500 nM, respectively.

In the case of `CN(C)CCc1c[nH]c2ccc(O)cc12` [BUFOTENINE], the values for the Ki in [3], in [4] and in [2] were 259 nM, 910 nM and 380 nM, respectively.

As for `Clc1cccc(N2CCNCC2)c1` [CHLOROPHENYLPIPERAZINE], the Ki is 2400 nM in assay [3] and 75 nM in assay [4].

Consider `CN(C)CCCSc1ccccc1NC(=O)/C=C/c1ccccc1` [CINANSERIN], for which the Ki amounted to 4 nM in assay [7]; 1000 nM in assay [4]; 3500 nM in assay [1]; 4 nM in [2]; 4 nM in assay [8].

Compound `COc1cc(CC(C)N)c(OC)cc1C` (configuration not stated) [DOM] returned a Ki in [1] of 2890 nM.

As usually defined, the IC50 is the concentration that inhibits the measured activity by half. The low end stands for inhibition by little substance, the high end for a need for much substance. Regarding `O=C1c2ccccc2S(=O)(=O)N1CCCCN1CCN(c2ncccn2)CC1` [IPSAPIRONE], the IC50 was found to be 26000 nM in assay [9] and 10000 nM in assay [10].

Take `O=C(c1ccc(F)cc1)C1CCN(CCn2c(=O)[nH]c3ccccc3c2=O)CC1` [KETANSERIN]: the Ki in assay [3] and in assay [4] was 1900 nM in each case.

As for `COc1ccc2[nH]cc(CCN(C)C)c2c1` [MEBUFOTENIN], the Ki amounted to 20 nM in assay [3], 90 nM in assay [4] and 50 nM in assay [1].

As to `CN1C[C@@H](NS(=O)(=O)N(C)C)C[C@@H]2c3cccc4c3c(cn4C)C[C@H]21` [MESULERGINE], the values for the Ki in assay [3] and in assay [4] were 300 nM and 13000 nM, respectively.

Turning to `CN1C[C@H](CNC(=O)OCc2ccccc2)C[C@@H]2c3cccc4c3c(cn4C)C[C@H]21` [METERGOLINE], the Ki in assay [3] is 6 nM; in [4] it was 25 nM; in assay [1], 20 nM.

With `COc1ccc(CC(C)N)cc1` (configuration not stated) [PARA-METHOXYAMPHETAMINE], the Ki in [1] came out at 79400 nM; in assay [2], 33600 nM.

The compound `c1ccc(N2CCNCC2)cc1` [PHENYLPIPERAZINE] registered a Ki in assay [5] of 135 nM.

As for `Cc1nc2ccccn2c(=O)c1CCN1CCC(C(=O)c2ccc(F)cc2)CC1` [PIRENPERONE], the Ki in assay [3] was 1700 nM; in assay [4] it was 6600 nM; in [11] it was 0.3 nM; in [8], 1 nM.

With `c1ccc2nc(N3CCNCC3)ccc2c1` [QUIPAZINE], the Ki was 17 nM in [7], 320 nM in assay [4] and 645 nM in [8].

`COc1ccc2[nH]cc(C3=CCNCC3)c2c1` [RU-24969] displayed an inhibitory constant (Ki) in assay [4] of 4 nM.

For the compound `O=C(CCCN1CCC2(CC1)C(=O)NCN2c1ccccc1)c1ccc(F)cc1` [SPIPERONE], the Ki in assay [3] was found to be 40 nM; in assay [4], 4800 nM; in assay [1] it was 160 nM.

For `NCCc1c[nH]c2ccccc12` [TRYPTAMINE], the results for the Ki in [7], in [3] and in assay [2] were 50 nM, 170 nM and 2895 nM, respectively.
